Target: T1, NS5B (Hepatitis C virus genotype 1b, UniProt P26663)
T1 construct: the RNA dependent RNA polymerase from hepatitis C virus (NS5B)
Assay: Binding studies of thiomethylsulfonate derivatives
Details: among heterocyclic/aromatic-substituted thiomethylsulfonate derivatives of FIG. 1
Source text: Cys366 was modified by both compounds (i.e., BMTS and MMTS) and is located in the proximity of the primer-binding site (i.e., initiation nucleotide binding site) of the enzyme. […] Based on these observations, it should especially be recognized that specific modification of Cys366 near the primer-binding site may advantageously be employed for rational inhibitor design. Furthermore, it is contemplated that second-generation compounds may even operate without involvement of the Cys366 (i.e., without formation of a covalent bond) by targeting only the small pocket of the NS5B. To explore the binding affinity and specificity to the cysteines near the active sites of NS5B, a exemplary heterocyclic/aromatic-substituted thiomethylsulfonate derivatives were designed and synthesized as depicted in FIG. 1. […] This compound was also soaked into the polymerase NS5B.

T1 sequence (P26663 2420-3010): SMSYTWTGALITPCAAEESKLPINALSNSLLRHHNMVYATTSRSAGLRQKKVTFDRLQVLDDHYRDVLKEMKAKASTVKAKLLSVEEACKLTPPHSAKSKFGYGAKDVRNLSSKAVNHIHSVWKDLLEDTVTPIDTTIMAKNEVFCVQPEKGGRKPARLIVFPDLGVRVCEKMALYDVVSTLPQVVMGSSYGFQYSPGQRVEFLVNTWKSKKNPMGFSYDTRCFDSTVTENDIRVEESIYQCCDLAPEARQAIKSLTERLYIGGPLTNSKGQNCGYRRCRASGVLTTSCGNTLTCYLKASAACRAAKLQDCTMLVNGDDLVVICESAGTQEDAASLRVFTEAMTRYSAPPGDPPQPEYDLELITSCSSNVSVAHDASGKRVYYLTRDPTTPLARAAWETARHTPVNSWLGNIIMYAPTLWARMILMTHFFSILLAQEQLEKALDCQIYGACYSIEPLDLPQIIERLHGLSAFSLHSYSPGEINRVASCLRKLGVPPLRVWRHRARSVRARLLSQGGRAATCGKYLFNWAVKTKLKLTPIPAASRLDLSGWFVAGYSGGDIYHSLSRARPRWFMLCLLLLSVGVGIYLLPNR

CS(=O)(=O)SCc1ccc(Cl)s1 [(5-chlorothiophen-2-yl)methylthiomethylsulfonate]
binding affinity: highest binding affinity

— US20030187000A1, “Inhibitors for de novo-RNA polymerases and methods of identifying targets for same” (priority 2002, published 2003)
